According to patent publication US5334703A, “Chromogenic substrate” (Chromonogenix AB, priority 1989, dated 1994):
Structures can show the parent of a compound that is named as a salt. Peptide text beside a SMILES is read from it. * marks the point of attachment. pNA = O=[N+]([O-])c1ccc(N*)cc1

Test system: activated LAL (Limulus Amebocyte Lysate)
Assay: Single-stage chromogenic LAL-test (hydrolysis of the chromogenic substrate by endotoxin-activated LAL, pNA read at 405 nm)
Format: biochemical, Limulus Potyphemus
Conditions: substrate concentration 2.2 mM in the reaction solution; endotoxin 0.1-1.2 EU/ml; Tris buffer pH 7.9; 37° C., 15 min; absorbance 405 nm
Protocol: A series of endotoxin containing solutions, making up a standard curve in the range 0.1-1.2 EU/ml, were assayed as described below using the different chromogenic substrates. The slopes of the resulting standard curves were compared and the slope for the substrate S-2423 was considered to be 100%.
A reagent (100 μl) consisting of a mixture of LAL (50% of the clotting concentration) and the chromogenic substrate (4.4 mM) in a Tris buffer of pH 7.9 is added to an equal volume of the sample. The resulting reaction (activation of the LAL and the subsequent hydrolyses of the chromogenic substrate)is carried out at 37° C. After 15 min. the reaction is terminated by the addition of 400 μl of acetic acid and the absorbance is read at 405 nm.
Substrate S-2423 (Ac-Ile-Glu-Gly-Arg-pNA.HCl) is taken as standard.

Structure (SMILES)	Relative activity (slope of endotoxin standard curve, S-2423 = 100%) [%]
CC[C@H](C)[C@H](NC(C)=O)C(=O)N[C@@H](CCC(=O)O)C(=O)NCC(=O)N[C@@H](CCCNC(=N)N)C(=O)Nc1ccc([N+](=O)[O-])cc1 [Substrate S-2423, Ac--Ile--Glu--Gly--Arg--pNA.HCl, reference compound] (Ac-IEGR-pNA)	100
CC[C@H](C)[C@H](NC(C)=O)C(=O)N[C@@H](CCC(=O)O)C(=O)NCC(=O)N[C@@H](CCCCN)C(=O)Nc1ccc([N+](=O)[O-])cc1 [Substrate S-2834, Ac--Ile--Glu--Gly--Lys--pNA.HCl] (Ac-IEGK-pNA)	126
CC[C@H](C)[C@H](NC(C)=O)C(=O)N[C@@H](CO)C(=O)NCC(=O)N[C@@H](CCCCN)C(=O)Nc1ccc([N+](=O)[O-])cc1 [Substrate S-2854, Ac--Ile--Ser--Gly--Lys--pNA.HCl] (Ac-ISGK-pNA)	131
CC[C@H](C)[C@H](NC(C)=O)C(=O)N[C@@H](CCC(=O)O)C(=O)OCC(=O)N[C@@H](CCCNC(=N)N)C(=O)Nc1ccc([N+](=O)[O-])cc1 [Substrate S-2860, Ac--Ile--Glu-Glycolyl-Arg--pNA.HCl]	142
